What is called AC50 is the concentration giving half of the maximal activity seen. A word on the EC50: it is the concentration at which the effect is half-maximal. In general, CC50 refers to the concentration that lowers cell viability or growth by half.

Active and inactive are the calls of the source.

The text below walks through data of ChEMBL document CHEMBL1201862, “PubChem BioAssay data set” (2004).

Experiment [1] has as its target Dual specificity tyrosine-phosphorylation-regulated kinase 1A (Rattus norvegicus, UniProt Q63470). The class given is biochemical, Homo sapiens.
The target in experiment [2] is FAD-linked sulfhydryl oxidase ALR (Homo sapiens, UniProt P55789). The experiment in a line: ALR-catalysed DTT oxidation blockers – biochemical, H2O2 detection, luminescence, cherry-pick, dose response (AID 493248).
The target of experiment [3] is T1, Rac GTPase-activating protein 1 (Homo sapiens, UniProt Q9H0H5).
T1 sequence (Q9H0H5 whole entry): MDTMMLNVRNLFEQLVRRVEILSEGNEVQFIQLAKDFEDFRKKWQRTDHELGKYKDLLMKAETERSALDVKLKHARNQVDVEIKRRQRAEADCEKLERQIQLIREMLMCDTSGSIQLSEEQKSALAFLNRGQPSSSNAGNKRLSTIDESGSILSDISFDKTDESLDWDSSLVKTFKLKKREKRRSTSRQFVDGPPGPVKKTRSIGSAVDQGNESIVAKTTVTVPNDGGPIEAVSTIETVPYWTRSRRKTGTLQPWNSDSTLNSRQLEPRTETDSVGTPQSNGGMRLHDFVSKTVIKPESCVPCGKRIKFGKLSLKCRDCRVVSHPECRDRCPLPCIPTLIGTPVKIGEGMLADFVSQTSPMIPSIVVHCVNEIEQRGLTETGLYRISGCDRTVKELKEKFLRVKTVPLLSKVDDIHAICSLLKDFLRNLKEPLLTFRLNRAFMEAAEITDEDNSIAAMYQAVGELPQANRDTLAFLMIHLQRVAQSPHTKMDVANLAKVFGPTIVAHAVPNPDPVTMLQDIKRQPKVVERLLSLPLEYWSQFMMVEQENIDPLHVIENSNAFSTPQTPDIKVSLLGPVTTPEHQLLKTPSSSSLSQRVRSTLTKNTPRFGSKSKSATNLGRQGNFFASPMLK
The experiment in a line: blockers of MgcRacGAP-driven Rac1 GTP hydrolysis – biochemical, ADP Hunter fluorescence, primary and confirmatory, confirmation (AID 624330). The class given is functional.

Experiment [4] has as its target T2, Short transient receptor potential channel 4 (Mus musculus, UniProt Q9QUQ5).
T2 sequence (Q9QUQ5 whole entry): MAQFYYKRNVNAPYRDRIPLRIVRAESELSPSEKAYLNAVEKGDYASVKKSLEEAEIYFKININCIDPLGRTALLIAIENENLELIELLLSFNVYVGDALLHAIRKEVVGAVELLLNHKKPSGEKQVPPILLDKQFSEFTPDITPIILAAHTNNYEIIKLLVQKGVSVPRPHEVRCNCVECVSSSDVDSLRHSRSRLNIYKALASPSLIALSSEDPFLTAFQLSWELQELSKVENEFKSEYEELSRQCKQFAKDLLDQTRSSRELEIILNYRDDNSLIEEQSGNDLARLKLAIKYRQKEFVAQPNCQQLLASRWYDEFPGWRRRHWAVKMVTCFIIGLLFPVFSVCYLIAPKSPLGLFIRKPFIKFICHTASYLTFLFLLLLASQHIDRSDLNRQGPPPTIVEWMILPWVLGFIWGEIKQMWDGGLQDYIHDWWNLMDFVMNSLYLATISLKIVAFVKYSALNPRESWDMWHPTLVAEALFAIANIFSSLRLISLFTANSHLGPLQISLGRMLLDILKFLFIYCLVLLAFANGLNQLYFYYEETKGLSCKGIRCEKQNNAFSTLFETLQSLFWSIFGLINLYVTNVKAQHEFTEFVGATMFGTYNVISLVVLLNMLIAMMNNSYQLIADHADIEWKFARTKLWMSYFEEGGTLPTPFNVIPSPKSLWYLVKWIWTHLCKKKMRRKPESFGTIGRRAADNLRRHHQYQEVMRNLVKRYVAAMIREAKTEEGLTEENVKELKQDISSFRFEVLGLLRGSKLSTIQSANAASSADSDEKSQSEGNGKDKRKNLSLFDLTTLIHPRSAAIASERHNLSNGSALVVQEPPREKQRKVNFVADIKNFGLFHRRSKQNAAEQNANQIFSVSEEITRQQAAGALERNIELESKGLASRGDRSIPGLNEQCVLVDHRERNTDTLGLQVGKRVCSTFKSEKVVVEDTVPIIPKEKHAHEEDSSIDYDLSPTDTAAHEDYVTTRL
The experiment in a line: block of DAMGO-driven TRPC4 calcium entry – cell-based, HEK293 TRPC4/mu-opioid, Fluo-4 calcium, dose response (AID 434942).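 Note: potency of inhibitors blocking the TRPC4 calcium response.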 The experiment is classed as functional.

A further experiment concerns the target Protein Wnt-3a (Mus musculus, UniProt P27467). The experiment in a line: antagonism of Wnt3a pathway luciferase reporter – Wnt-LIGHT cells, luminescence, selectivity assay for Gli-SUFU antagonist project, dose response (AID 651570).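 Note: Wnt-LIGHT reporter cells stimulated with conditioned medium from Wnt3a-producing cells.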 The class given is functional. The following applies: read-out: IC50_Mean.
The next experiment concerns HEK293. The experiment can be described thus: EBV LMP1 TES2 canonical NF-kB signalling blockers – cell-based, HEK293, luciferase, cherry-pick, dose response (AID 588343). The class given is functional. The note with it: Homo sapiens.
In experiment [5] the test system is BJ. The experiment in a line: BJ-TERT-LT-ST fibroblast viability loss – cell-based, RAS-independent, luminescence, dose response (AID 1935).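 Note: BJ fibroblasts immortalized with TERT plus LT and ST oncogenes.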 The experiment is classed as functional. The following applies: Homo sapiens.
Experiment [6] deals with BJ. The experiment can be described thus: growth inhibition of engineered Ras-driven BJ cells – cell-based, alamar blue fluorescence, cherrypicked samples, dose response (AID 2631).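 Note: confirmatory dose-response assay in RAS-dependent BJ fibroblasts engineered with TERT, LT and ST, with cytotoxicity read by fluorescence.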 The class given is functional. The following applies: Homo sapiens.
In experiment [7] the test system is BJ. The experiment in a line: cells. The class given is functional, cell-based. The note with it: Homo sapiens.
In experiment [8] the test system is BJ. The experiment can be described thus: BJ-TERT fibroblast viability loss – cell-based, RAS-independent, luminescence, dose response (AID 1933). The class given is functional. The following applies: Homo sapiens.
Experiment [9] is described as follows: DRD fibroblast viability loss – cell-based, non-viral oncogenic, luminescence, dose response (AID 1934). The experiment is classed as functional. The note with it: Homo sapiens.
The target of experiment [10] is T3, Zinc finger protein mex-5 (Caenorhabditis elegans, UniProt Q9XUB2).
T3 sequence (Q9XUB2 whole entry): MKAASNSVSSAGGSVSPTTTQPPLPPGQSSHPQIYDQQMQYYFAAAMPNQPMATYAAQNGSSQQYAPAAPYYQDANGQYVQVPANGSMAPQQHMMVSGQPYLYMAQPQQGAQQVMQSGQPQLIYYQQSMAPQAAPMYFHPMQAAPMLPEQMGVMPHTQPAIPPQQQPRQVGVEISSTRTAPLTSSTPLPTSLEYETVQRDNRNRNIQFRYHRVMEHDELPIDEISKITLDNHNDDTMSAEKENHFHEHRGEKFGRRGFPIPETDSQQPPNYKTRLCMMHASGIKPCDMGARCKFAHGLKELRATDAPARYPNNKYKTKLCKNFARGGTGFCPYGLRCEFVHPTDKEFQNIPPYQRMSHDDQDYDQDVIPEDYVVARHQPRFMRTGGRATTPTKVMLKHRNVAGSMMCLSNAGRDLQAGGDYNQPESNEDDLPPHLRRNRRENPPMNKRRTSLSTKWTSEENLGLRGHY
The experiment in a line: potency of MEX-5 RNA-binding blockers – biochemical, C. elegans, fluorescence polarization, dose response (AID 1960). Background: Polarisation of emitted light reports the rotation of a fluorescent probe.

A short description of experiment [11]: Luminescence Cell-Based Dose Confirmation HTS to Identify Inhibitors of Platelet Dense Granule Release. [Related pubchem assays: 1663 (Primary HTS), 1678 (Summary of Project)]. The class given is functional.
Experiment [12] is described as follows: Luminescence Cell-Based Dose Response HTS to Identify Inhibitors of 5'UTR Stem-Loop Driven Prion Protein mRNA Translation in H4 Neuroglioblastoma Cells. [Related pubchem assays: 1827 (Project Summary), 1813 (Primary HTS)]. The experiment is classed as functional.
The target in experiment [13] is T4, RNA-binding protein pos-1 (Caenorhabditis elegans, UniProt G5EF15).
T4 sequence (G5EF15 whole entry): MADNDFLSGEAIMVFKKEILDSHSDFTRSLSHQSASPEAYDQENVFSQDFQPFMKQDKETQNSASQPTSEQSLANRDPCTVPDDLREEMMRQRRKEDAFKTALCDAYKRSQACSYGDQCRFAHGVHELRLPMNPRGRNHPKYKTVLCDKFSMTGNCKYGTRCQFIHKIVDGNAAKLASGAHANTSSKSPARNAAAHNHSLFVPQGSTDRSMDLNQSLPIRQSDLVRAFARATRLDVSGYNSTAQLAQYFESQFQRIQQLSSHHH
The experiment in a line: disruptors of C. elegans POS-1 RNA interaction – biochemical, fluorescence polarization, dose response (AID 1964).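 Note: purified POS-1 fused to maltose binding protein made in E. coli; potency of compounds blocking POS-1 binding to fluorescent RNA.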

In experiment [14] the target is Glucose-6-phosphate 1-dehydrogenase (Homo sapiens, UniProt P11413). The experiment in a line: inhibition of Homo sapiens G6PD, dose series – biochemical, fluorescence, selectivity assay for P. falciparum G6PD inhibitor project, dose response (AID 504792). The experiment is classed as functional.
Experiment [15] in a line: alpha-synuclein stem-loop luciferase translation blockers – H4 neuroglioma cells, luminescence, confirmation (AID 1988). The experiment is classed as functional, cell-based.
Experiment [16] deals with Luciferin 4-monooxygenase (Photinus pyralis, UniProt P08659). The experiment can be described thus: inhibition of purified Photinus pyralis luciferase – biochemical, luminescence, dose response (AID 1891).
The next experiment has as its system INS1. The experiment can be described thus: INS-1E survival protection against cytokine death – cell-based, luminescence, retest, dose response (AID 449756).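 Note: cell death triggered by IL-1 beta plus TNF-alpha plus IFN-gamma mixture; protective hits raise ATP signal compared with cytokine alone wells.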 The experiment is classed as functional. The note with it: Rattus norvegicus.
In another experiment the target is Melanocortin receptor 4 (Homo sapiens, UniProt P32245). The experiment can be described thus: inhibitors of MC4R cAMP signaling – cell-based, TR-FRET, biased antagonists, dose response (AID 602298).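 Note: antagonist potency against agonist-stimulated cAMP production.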 The class given is functional. (Time-resolved FRET reads energy transfer from a long-lived donor to a nearby acceptor.)
Experiment [17] can be described thus: cAMP pathway inhibition in counterscreen cell line – TR-FRET cAMP detection, counter-screen for MC4R biased antagonist project, dose response (AID 602305).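 Note: U2OS cells stimulated with forskolin near its EC80 as the cAMP inducer; potency is for inhibition of forskolin-stimulated cAMP signaling.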 The experiment is classed as functional, cell-based. Background: Counterscreens check selectivity or assay interference.
A short description of experiment [18]: THP-1 cell cytotoxicity, dose response, cytotoxicity control for non-replicating M. tuberculosis project (AID 489025). The class given is functional.
The next experiment in a line: cells. The class given is functional.
The test system of the next experiment is Vero. The experiment in a line: cells. The experiment is classed as functional. The following applies: Chlorocebus sabaeus.

Sequence of Melanocortin receptor 4 (P32245 whole entry): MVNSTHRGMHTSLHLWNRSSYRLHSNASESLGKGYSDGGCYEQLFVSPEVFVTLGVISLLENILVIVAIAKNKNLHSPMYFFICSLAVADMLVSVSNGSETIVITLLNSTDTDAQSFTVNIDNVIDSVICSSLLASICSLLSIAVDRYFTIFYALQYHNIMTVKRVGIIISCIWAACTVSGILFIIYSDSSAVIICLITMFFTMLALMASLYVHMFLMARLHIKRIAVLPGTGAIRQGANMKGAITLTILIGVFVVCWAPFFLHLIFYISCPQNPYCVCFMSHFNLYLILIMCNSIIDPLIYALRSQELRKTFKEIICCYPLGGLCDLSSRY
Sequence of Protein Wnt-3a (P27467 whole entry): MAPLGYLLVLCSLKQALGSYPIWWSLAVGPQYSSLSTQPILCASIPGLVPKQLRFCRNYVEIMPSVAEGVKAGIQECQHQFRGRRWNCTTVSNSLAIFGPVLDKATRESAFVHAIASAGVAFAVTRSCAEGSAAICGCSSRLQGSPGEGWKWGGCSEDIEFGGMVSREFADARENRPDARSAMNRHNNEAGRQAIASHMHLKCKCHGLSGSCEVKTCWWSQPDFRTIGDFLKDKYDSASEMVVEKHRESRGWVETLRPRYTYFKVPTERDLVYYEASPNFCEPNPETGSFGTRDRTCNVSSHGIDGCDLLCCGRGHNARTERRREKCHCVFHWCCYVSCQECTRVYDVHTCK
Sequence of Glucose-6-phosphate 1-dehydrogenase (P11413 whole entry): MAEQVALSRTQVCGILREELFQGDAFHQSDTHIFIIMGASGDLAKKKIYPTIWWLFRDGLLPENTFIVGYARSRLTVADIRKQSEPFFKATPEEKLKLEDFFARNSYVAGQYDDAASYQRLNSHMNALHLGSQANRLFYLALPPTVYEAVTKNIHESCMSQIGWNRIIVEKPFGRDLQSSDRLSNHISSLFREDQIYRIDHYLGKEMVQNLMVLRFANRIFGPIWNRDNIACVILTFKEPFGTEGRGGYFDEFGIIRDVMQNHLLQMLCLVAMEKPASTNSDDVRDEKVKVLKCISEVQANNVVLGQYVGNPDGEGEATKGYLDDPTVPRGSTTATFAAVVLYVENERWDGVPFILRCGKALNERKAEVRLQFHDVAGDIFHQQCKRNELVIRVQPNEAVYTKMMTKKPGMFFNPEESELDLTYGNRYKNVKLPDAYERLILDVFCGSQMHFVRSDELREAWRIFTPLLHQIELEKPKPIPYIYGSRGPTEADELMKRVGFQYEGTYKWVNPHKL
Sequence of Luciferin 4-monooxygenase (P08659 whole entry): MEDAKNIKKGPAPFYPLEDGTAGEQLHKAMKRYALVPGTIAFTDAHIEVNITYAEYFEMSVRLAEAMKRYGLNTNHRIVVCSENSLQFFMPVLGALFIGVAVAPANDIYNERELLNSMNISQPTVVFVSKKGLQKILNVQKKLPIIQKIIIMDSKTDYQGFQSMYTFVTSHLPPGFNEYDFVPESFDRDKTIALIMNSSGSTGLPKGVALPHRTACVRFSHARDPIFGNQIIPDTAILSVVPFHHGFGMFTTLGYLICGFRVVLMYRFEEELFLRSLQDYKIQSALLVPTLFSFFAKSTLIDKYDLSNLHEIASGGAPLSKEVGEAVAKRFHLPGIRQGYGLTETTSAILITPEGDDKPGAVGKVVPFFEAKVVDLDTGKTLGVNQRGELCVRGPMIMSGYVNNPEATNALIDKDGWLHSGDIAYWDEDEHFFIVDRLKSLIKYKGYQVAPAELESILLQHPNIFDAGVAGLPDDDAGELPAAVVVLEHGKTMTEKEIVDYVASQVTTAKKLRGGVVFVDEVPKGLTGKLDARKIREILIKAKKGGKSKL
Sequence of FAD-linked sulfhydryl oxidase ALR (P55789 whole entry): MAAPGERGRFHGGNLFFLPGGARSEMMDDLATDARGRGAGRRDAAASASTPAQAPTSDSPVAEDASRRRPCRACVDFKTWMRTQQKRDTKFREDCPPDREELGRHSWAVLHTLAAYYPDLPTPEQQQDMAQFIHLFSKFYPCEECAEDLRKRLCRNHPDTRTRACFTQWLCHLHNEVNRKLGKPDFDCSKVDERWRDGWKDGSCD

As for `COc1cc(/C=C2\SC(N3CCC(C)CC3)=NC2=O)ccc1O`, the AC50 in [1] is 2.68 µM (active); in [2], 0.929 µM (active). Moreover, the IC50 in experiment [3] is 16.3 µM (active). For the same compound, the EC50 in experiment [4] is 3.35 µM (active).

With `Cc1nn(-c2ccc(NC(=O)c3ccncc3)cc2)c(C)c1Cl`, the IC50 at Protein Wnt-3a is 3 µM (active).

Regarding `COC(=O)c1cc(S(=O)(=O)N2CCC(c3cc(OC)ccc3OC)C2)c[nH]1` (stereo unspecified), the IC50 at Protein Wnt-3a was 7.87 µM (active).

As to `COc1cccc(C(=O)N2CCN(c3nc4cc(C)cc(C)c4cc3C#N)CC2)c1`, the AC50 in the experiment on HEK293 is 194 µM (active).

For `O=C(CCl)N(CCCNC(=O)C(F)(F)F)c1ccc([N+](=O)[O-])cc1`, the EC50 was 11.6 µM (inconclusive) with BJ [5]; 0.995 µM (active) in the experiment with BJ [6]; 4.39 µM (active) with BJ [7]; 2.53 µM (inconclusive) in the experiment on BJ [8]; 4.66 µM (active) in experiment [9].

For the compound `C(=N\Nc1nc2ccccc2[nH]1)/c1ccccn1`, the EC50 is 41.7 µM (active) in [10]; 4.15 µM (active) in experiment [11]; 1.29 µM (active) in [12]; 1.99 µM (active) in the experiment with BJ [6]; 72.9 µM (active) in experiment [13]; 5.82 µM (active) in experiment [15]. The EC50 in [16] is 1.16 µM (active). Further, the IC50 in experiment [14] is > 80 µM (inactive).

With `O=C(NCc1cccnc1)c1ccc(-c2cc3ccccc3oc2=O)cc1`, the EC50 in the experiment on BJ [5] was 3.16 µM (active); in the experiment with BJ [6], 6.49 µM (active); in the experiment with BJ [7], 11.8 µM (inconclusive); with BJ [8], 22.6 µM (active); in experiment [9], > 150 µM (not active). Moreover, the AC50 in the experiment with INS1 is 3.61 µM (active).

`COC(=O)c1c(NC(=O)CC2SCC(C(=O)OC)NC2=O)sc2c1CCCC2` (stereo unspecified): the IC50 (on Melanocortin receptor 4; in experiment [17]) was > 64.6 µM (inactive) throughout.

As for `COc1cccc2[nH]c3c(Cl)ncnc3c12`, the IC50 on Melanocortin receptor 4 is > 64.6 µM (inactive); in experiment [17] it was > 64.6 µM (inactive); in the experiment “cells” it was > 50 µM (active). In addition, the CC50 in experiment [18] was 33.9 µM (active).

As to `C/C(=C\[C@@H](NP(=O)(c1ccccc1)c1ccccc1)c1ccccc1)CO[Si](c1ccccc1)(c1ccccc1)C(C)(C)C`, in the experiment on Vero, the CC50 was > 25 µM (active).

For the compound `CN1C(=O)/C(=C\c2ccc(N3CCCCCC3)cc2)C(=O)NC1=S`, in the experiment with Vero, the cytotoxic concentration (CC50) was 17.9 µM (active).

For `COc1ccc(-n2c(SC3CCOC3=O)nc3ccccc32)cc1` (stereo unspecified), the IC50 (on Melanocortin receptor 4; in experiment [17]) was > 64.6 µM (inactive) each time.
